Consider eight compounds from ChEMBL document CHEMBL5465560, “Selectivity Literature for EUbOPEN Chemogenomic Library” (2024).

The target of assay [1] is T1, Tyrosine-protein kinase ZAP-70 (Homo sapiens) (UniProt P43403).
T1 sequence (whole entry): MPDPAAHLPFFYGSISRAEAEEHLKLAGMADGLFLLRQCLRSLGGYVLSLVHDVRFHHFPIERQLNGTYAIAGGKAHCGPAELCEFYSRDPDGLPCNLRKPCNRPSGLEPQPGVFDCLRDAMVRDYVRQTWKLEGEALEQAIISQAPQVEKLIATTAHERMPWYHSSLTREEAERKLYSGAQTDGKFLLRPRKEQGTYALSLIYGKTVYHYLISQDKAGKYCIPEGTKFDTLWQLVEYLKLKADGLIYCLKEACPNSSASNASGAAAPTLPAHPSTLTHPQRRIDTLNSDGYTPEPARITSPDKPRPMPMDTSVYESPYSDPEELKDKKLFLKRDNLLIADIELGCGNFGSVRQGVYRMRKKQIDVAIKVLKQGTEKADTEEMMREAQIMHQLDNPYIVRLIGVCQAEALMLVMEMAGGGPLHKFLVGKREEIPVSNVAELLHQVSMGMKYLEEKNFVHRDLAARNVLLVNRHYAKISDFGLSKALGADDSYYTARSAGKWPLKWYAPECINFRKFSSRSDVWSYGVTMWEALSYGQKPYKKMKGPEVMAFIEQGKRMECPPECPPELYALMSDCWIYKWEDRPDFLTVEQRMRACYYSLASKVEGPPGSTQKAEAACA
As to the kind of experiment: Selectivity interaction (Upstate Kinase Profiler service (Millipore)) EUB0000056c ZAP70. Conditions: at 1 µM.

Assay [2] deals with Serine/threonine-protein kinase 32B (Homo sapiens) (UniProt Q9NY57). As to the kind of experiment: Selectivity interaction (KinomeScan (DiscoverX)) EUB0001079a STK32B. Particulars: at 1 µM.
The target of assay [3] is Tyrosine-protein kinase Lyn (Homo sapiens, UniProt P07948). As to the kind of experiment: Selectivity interaction (Millipore kinase profiler) EUB0000124b LYN. Particulars: at 10 µM.
Assay [4] relates to Hepatocyte growth factor receptor (Homo sapiens), P08581 [M1250T]. As to the kind of experiment: (§1) Selectivity interaction (KinomeScan (DiscoverX)) EUB0001049a MET. Particulars: at 1 µM.
Assay [5] has as its system Hepatocyte growth factor receptor (Homo sapiens), P08581 [Y1235D]. The assay is described as §1. Particulars: at 1 µM.
The target of assay [6] is Hepatocyte growth factor receptor (Homo sapiens, UniProt P08581). The description is as §1. Particulars: at 1 µM.
Assay [7] addresses Calcium/calmodulin-dependent protein kinase type II subunit alpha (Homo sapiens, UniProt Q9UQM7). As to the kind of experiment: Selectivity interaction (KinomeScan (DiscoverX)) EUB0000607a CAMK2A. Particulars: at 10 µM.
Assay [8] deals with T2, Discoidin domain-containing receptor 2 (Homo sapiens) (UniProt Q16832).
T2 sequence (whole entry): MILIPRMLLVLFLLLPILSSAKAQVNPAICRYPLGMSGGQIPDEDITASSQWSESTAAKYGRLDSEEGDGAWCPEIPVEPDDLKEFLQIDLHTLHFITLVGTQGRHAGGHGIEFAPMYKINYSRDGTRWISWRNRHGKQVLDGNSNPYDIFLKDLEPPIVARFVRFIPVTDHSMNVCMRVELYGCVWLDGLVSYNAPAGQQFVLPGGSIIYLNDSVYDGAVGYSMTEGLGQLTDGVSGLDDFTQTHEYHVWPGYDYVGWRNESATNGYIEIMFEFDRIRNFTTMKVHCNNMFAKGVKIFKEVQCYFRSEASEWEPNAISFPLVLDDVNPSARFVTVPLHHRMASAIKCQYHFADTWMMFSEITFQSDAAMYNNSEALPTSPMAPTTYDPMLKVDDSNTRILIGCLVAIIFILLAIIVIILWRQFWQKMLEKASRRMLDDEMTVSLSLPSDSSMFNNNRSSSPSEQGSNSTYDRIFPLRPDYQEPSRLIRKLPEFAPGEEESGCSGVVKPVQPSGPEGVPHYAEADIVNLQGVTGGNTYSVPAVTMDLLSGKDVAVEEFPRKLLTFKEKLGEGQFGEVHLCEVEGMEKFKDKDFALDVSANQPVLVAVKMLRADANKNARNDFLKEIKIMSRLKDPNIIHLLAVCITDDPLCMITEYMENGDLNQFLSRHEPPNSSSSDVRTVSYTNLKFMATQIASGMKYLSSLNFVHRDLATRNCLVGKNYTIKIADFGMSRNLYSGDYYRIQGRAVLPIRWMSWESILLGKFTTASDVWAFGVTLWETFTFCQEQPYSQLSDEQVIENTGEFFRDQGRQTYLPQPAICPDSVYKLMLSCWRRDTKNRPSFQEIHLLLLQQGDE
The assay is described as follows: Selectivity interaction (KinomeScan (DiscoverX)) EUB0000607a DDR2. Conditions: at 10 µM.

Assay [9] deals with T3, Mitogen-activated protein kinase kinase kinase 2 (Homo sapiens) (UniProt Q9Y2U5).
T3 sequence (whole entry): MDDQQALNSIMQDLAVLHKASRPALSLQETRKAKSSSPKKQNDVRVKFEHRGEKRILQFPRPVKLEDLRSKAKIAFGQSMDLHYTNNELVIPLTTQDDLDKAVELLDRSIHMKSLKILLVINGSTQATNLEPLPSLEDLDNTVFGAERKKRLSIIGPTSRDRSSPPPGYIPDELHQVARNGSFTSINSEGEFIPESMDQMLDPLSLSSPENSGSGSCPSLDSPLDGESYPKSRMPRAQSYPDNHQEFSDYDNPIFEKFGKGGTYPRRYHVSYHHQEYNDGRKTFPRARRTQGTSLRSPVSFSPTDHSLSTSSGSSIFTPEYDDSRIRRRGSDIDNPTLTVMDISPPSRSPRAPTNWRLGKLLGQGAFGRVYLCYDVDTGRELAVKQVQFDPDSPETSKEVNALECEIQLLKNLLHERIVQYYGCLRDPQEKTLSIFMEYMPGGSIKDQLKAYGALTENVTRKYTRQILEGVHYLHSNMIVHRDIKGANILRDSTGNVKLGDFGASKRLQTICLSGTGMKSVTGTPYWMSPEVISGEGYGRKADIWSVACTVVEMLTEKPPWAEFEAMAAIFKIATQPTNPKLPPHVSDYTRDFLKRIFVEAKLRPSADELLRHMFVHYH
The assay is described as follows: Selectivity interaction (ActivX KiNativ screen (kinase selectivity in THP-1 cell lysates)) EUB0000639a MAP3K2. Conditions: lysate, at 0.01 µM. The class given is subcellular.

In assay [10] the target is Serine/threonine-protein kinase 24 (Homo sapiens) (UniProt Q9Y6E0). As to the kind of experiment: Selectivity interaction (ActivX KiNativ screen (kinase selectivity in THP-1 cell lysates)) EUB0000639a STK24. Conditions: lysate. Type of assay: subcellular.
Assay [11] deals with Receptor-interacting serine/threonine-protein kinase 2 (Homo sapiens, UniProt O43353). The assay is described as follows: Selectivity interaction (NanoBRET assay (HEK293T cells)) EUB0000229b RIPK2. Type of assay: cell-based, HEK-293T.
For assay [12], the target named is Tyrosine-protein kinase receptor UFO (Homo sapiens) (UniProt P30530). As to the kind of experiment: Selectivity interaction (KinomeScan (DiscoverX)) EUB0000618a AXL. Particulars: at 10 µM.
Chain of Tyrosine-protein kinase receptor UFO (Homo sapiens) (P30530 whole entry): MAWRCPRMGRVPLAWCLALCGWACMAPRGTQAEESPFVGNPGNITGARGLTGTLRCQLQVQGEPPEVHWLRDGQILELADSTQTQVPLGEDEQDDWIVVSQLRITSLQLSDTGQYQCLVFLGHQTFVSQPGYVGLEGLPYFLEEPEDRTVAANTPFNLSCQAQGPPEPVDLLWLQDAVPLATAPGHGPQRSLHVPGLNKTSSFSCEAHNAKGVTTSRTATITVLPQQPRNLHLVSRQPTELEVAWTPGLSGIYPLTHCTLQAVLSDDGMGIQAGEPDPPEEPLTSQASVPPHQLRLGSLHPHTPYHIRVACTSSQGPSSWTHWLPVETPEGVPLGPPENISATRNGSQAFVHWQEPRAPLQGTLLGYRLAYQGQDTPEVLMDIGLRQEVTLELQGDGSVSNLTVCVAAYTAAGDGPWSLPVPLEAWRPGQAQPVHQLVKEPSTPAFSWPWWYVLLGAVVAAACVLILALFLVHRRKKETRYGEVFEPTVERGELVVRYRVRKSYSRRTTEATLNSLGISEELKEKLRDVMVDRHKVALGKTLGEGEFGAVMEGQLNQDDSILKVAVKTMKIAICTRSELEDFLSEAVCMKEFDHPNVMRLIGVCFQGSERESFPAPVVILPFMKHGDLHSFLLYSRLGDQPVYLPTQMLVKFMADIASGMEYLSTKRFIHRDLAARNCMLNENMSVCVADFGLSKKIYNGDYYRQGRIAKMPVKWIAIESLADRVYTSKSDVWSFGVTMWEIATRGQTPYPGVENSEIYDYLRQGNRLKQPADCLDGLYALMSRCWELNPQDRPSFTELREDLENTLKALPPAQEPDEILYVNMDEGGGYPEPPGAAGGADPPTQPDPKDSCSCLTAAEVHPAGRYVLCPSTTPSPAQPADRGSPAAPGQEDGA

Chain of Serine/threonine-protein kinase 24 (Homo sapiens) (Q9Y6E0 whole entry, looked up): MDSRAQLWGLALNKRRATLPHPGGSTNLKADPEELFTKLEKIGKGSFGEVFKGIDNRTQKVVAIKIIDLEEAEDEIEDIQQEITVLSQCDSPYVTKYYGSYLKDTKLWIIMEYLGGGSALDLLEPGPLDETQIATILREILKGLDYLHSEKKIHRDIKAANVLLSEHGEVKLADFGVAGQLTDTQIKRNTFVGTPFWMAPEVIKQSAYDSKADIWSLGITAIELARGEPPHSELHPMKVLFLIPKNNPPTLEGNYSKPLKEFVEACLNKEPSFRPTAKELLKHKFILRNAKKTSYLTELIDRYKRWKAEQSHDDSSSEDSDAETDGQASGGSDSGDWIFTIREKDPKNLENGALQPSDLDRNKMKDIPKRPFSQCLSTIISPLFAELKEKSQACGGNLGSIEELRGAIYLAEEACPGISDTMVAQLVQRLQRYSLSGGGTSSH
Chain of Receptor-interacting serine/threonine-protein kinase 2 (O43353 whole entry): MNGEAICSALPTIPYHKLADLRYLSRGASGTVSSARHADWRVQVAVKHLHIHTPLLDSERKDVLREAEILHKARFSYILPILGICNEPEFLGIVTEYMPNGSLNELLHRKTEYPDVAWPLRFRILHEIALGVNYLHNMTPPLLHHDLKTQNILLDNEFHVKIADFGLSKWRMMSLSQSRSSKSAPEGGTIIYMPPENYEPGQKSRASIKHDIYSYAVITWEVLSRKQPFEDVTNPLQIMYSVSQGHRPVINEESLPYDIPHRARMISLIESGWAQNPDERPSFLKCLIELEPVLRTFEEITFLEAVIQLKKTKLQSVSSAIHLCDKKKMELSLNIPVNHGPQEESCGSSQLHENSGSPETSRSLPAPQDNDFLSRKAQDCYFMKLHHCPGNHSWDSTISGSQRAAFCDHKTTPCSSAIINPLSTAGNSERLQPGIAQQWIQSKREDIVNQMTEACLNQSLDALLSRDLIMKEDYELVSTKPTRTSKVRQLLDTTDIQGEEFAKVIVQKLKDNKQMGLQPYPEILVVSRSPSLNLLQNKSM
Chain of Tyrosine-protein kinase Lyn (P07948 2-512 limits assumed): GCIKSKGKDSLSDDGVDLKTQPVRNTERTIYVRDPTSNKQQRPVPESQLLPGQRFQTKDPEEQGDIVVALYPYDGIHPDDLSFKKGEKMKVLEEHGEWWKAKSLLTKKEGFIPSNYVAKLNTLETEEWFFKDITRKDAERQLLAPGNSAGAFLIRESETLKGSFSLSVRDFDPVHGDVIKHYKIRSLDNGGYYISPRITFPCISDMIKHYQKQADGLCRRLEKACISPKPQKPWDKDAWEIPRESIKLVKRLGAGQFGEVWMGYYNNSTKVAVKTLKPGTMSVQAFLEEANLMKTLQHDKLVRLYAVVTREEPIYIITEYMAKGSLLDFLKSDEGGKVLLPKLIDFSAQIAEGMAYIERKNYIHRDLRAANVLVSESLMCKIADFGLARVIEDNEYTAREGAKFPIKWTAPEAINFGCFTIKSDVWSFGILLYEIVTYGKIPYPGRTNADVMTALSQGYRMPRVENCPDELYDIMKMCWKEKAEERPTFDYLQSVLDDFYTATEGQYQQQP
Chain of Hepatocyte growth factor receptor (Homo sapiens), P08581 [M1250T] (P08581 whole entry M1250T): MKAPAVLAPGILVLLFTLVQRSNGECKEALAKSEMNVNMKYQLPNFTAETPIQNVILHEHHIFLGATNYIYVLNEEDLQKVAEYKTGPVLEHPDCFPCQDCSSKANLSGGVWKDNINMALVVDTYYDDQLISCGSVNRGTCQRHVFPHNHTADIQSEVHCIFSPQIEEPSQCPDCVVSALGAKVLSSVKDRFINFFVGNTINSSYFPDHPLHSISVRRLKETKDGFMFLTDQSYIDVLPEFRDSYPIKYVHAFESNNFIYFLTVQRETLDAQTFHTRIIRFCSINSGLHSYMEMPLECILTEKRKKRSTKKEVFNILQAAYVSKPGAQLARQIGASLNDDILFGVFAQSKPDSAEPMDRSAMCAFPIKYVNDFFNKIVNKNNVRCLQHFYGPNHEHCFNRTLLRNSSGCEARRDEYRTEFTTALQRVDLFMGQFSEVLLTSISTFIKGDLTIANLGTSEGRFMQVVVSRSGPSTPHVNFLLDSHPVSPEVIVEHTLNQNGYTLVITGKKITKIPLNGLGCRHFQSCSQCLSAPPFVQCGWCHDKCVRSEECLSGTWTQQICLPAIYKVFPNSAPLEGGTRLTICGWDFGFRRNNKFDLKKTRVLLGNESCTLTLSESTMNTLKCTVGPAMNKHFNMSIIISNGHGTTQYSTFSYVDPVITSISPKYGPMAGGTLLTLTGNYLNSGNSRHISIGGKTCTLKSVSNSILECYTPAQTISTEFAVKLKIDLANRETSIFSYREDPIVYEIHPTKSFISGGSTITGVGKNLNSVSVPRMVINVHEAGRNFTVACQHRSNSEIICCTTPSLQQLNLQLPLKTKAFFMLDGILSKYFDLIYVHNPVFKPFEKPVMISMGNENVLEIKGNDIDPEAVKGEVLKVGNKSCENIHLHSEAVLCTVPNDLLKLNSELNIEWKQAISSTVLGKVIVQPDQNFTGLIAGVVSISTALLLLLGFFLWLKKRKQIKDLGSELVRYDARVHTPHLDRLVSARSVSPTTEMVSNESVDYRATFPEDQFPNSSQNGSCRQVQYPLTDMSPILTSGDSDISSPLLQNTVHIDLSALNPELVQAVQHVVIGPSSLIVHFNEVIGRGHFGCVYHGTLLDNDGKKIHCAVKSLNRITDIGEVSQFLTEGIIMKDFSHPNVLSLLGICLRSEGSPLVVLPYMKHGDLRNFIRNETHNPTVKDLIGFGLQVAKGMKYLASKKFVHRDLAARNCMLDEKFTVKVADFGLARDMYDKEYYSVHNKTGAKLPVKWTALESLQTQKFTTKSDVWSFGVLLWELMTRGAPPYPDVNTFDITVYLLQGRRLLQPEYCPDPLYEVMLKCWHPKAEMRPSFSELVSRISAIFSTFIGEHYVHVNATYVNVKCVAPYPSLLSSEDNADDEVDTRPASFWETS
Chain of Serine/threonine-protein kinase 32B (Homo sapiens) (Q9NY57 whole entry): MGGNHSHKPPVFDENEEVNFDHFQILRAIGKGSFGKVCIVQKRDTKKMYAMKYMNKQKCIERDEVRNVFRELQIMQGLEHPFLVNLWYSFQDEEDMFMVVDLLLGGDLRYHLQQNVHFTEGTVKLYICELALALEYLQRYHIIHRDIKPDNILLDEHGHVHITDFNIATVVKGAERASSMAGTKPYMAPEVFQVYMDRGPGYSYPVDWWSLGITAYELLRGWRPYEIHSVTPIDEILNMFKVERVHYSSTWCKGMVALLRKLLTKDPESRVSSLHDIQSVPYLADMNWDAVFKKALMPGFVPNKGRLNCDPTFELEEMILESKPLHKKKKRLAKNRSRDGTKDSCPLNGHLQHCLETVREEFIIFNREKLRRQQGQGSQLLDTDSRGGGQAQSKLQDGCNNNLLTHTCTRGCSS
Chain of Calcium/calmodulin-dependent protein kinase type II subunit alpha (Q9UQM7 whole entry, the tested form may be a part): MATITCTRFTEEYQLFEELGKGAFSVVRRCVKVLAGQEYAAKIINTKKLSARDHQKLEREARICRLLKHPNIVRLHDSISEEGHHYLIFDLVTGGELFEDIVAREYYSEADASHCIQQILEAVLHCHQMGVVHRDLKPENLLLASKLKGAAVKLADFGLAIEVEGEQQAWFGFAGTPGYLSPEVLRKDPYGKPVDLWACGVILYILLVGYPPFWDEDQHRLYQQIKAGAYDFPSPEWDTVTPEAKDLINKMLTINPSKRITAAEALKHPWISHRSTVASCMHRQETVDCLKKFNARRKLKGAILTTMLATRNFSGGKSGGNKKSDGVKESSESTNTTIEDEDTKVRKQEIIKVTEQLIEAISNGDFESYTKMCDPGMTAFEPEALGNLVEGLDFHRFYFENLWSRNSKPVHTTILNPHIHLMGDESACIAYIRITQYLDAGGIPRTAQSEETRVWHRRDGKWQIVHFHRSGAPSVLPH

Regarding `Cc1ccc(-c2ccc3c(ccc4sc5c(c43)NC[C@@H](C)NC5=O)n2)cn1`, in assay [1], the % of inhibition is -8%.
The compound `Nc1cnc(N2CCc3cc(S(=O)(=O)Nc4c(F)cc(Cl)cc4F)cc(N4CCCC4=O)c32)nc1` [TP-020n] registered a % of control in [2] of 74%.
In the case of `CC(=O)Nc1cccc(-n2c(=O)n(C3CC3)c(=O)c3c(Nc4ccc(I)cc4F)n(C)c(=O)c(C)c32)c1`, the % of control in assay [3] worked out at 95%.
In the case of `COc1cc(Nc2nc(C)cc(-c3cnn4nc(OC)ccc34)n2)cc(C(F)(F)F)c1`, the % of control in [4] turned out to be 100%; in assay [5], 82%; in [6], 93%.
Regarding `CNC(=O)Nc1ccc(-c2nc(N3CC4CCC(C3)O4)c3cnn(C4CCC5(CC4)OCCO5)c3n2)cc1`, the % of control in [7] and in assay [8] was 100% throughout.
With `CC[C@@H]1[C@H](F)C(=O)N[C@@H]1COc1nccc2cc(C(N)=O)c(OC)cc12` [ZIMLOVISERTIB], the % of inhibition is 8.7% in [9]; 3.4% in [10] (at 0.01 µM); -19.7% in assay [10] (at 0.04 µM); -5.9% in assay [10] (at 0.2 µM); 6% in assay [10] (at 1 µM); 5.4% in [10] (at 5 µM).
Regarding `COc1cc(N(C)c2ccnc3ccc(C(F)(F)F)cc23)cc(OC)c1OC`, the concentration for half-maximal inhibition (IC50) in [11] is above 10 µM.
`O[C@H]1CC[C@H](Nc2ncc3nc(Nc4c(F)cc(F)cc4F)n([C@H]4CCOC4)c3n2)CC1` came in with a % of control in [12] of 86%.

By IC50 is commonly meant the point on the concentration scale where inhibition reaches its midpoint. A high value points to weaker potency.
